Values of other authors as cited in patent US20070072904A1, “PPAR active compounds” (priority 2005, published 2007).

How the values were obtained:
murine PPARα = target: T1, murine PPARα (Mus musculus, UniProt P23204)
T1 sequence (P23204 1-468): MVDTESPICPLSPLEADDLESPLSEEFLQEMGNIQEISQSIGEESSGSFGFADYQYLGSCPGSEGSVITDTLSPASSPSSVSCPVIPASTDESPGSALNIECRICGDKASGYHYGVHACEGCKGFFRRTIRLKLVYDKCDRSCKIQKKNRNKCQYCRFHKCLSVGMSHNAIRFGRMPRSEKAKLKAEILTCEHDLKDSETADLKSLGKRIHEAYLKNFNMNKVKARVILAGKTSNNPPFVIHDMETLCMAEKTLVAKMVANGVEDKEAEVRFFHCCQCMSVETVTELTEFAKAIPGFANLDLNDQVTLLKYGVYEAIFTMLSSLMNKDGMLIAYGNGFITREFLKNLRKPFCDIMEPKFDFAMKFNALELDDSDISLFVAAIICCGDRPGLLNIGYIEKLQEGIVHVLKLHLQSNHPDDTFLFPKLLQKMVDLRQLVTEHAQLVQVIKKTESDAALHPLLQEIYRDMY

PPARδ = target: T2, PPARδ (Homo sapiens, UniProt Q03181)
T2 sequence (Q03181 1-441): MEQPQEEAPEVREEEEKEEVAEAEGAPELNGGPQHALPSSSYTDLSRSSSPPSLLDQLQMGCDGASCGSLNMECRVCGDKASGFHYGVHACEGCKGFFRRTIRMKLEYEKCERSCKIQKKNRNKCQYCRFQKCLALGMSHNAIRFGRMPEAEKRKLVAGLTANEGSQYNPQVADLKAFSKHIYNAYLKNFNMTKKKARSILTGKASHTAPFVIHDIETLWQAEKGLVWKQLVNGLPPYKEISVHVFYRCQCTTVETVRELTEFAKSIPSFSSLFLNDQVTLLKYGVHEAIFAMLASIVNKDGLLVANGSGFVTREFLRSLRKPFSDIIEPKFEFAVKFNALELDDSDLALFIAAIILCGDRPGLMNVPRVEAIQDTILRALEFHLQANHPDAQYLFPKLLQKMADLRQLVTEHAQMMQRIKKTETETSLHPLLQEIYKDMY

[1] = recent large prospective trial

Compound | activity on murine PPARα (murine PPARα) | agonist selectivity for PPARδ over PPARγ (PPARδ) | reduction in cardiovascular events or death [1]
CCCc1c(OCCCOc2ccc(OCC(=O)O)cc2)ccc(C(C)=O)c1O [Compound L-165041] | inactive | approximately 30 fold | –
Cc1ccc(C)c(OCCCC(C)(C)C(=O)O)c1 [gemfibrozil] | – | – | 22%
